# Reference: ChEMBL document CHEMBL1201862, “PubChem BioAssay data set” (2004)
#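 96-well plates; 48 h exposure; 5 concentrations. Endpoints by linear interpolation between flanking doses. Not reached: highest tested concentration assigned. Abbreviation: GI50, concentration required for 50% inhibition of growth.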 Active and inactive are the calls of the source. Rule as the data show it: active = GI50 up to about 1.1 µM and inactive = higher.
# What was measured:
# Assay in all cases: NCI anticancer screen, dose series, 48 h
# 786-0 = test system: 786-0
# A498 = test system: A498
# A549 = test system: A549
# ACHN = test system: ACHN
# BT-549 = test system: BT-549
# CAKI-1 = test system: CAKI-1
# CCRF-CEM = test system: CCRF-CEM
# COLO 205 = test system: COLO 205
# DU-145 = test system: DU-145
# EKVX = test system: EKVX
# HCT-116 = test system: HCT-116
# HCT-15 = test system: HCT-15
# HL-60 = test system: HL-60
# HOP-62 = test system: HOP-62
# HOP-92 = test system: HOP-92
# HT-29 = test system: HT-29
# Hs-578T = test system: Hs-578T
# IGROV-1 = test system: IGROV-1
# K562 = test system: K562
# KM12 = test system: KM12
# LOX IMVI = test system: LOX IMVI
# M14 = test system: M14
# MCF7 = test system: MCF7
# MDA-MB-231 = test system: MDA-MB-231
# MDA-MB-435 = test system: MDA-MB-435
# MDA-N = test system: MDA-N
# MOLT-4 = test system: MOLT-4
# Malme-3M = test system: Malme-3M
# NCI-H226 = test system: NCI-H226
# NCI-H23 = test system: NCI-H23
# NCI-H460 = test system: NCI-H460
# NCI-H522 = test system: NCI-H522
# NCI/ADR-RES = test system: NCI/ADR-RES
# OVCAR-3 = test system: OVCAR-3
# OVCAR-4 = test system: OVCAR-4
# OVCAR-5 = test system: OVCAR-5
# OVCAR-8 = test system: OVCAR-8
# PC-3 = test system: PC-3
# RPMI-8226 = test system: RPMI-8226
# RXF 393 = test system: RXF 393
# SF-268 = test system: SF-268
# SF-295 = test system: SF-295
# SF-539 = test system: SF-539
# SK-MEL-28 = test system: SK-MEL-28
# SK-MEL-2 = test system: SK-MEL-2
# SK-MEL-5 = test system: SK-MEL-5
# SK-OV-3 = test system: SK-OV-3
# SN12C = test system: SN12C
# SNB-19 = test system: SNB-19
# SNB-75 = test system: SNB-75
# SR = test system: SR
# SW-620 = test system: SW-620
# T47D = test system: T47D
# TK-10 = test system: TK-10
# U-251 = test system: U-251
# UACC-257 = test system: UACC-257
# UACC-62 = test system: UACC-62
# UO-31 = test system: UO-31
compound,measurement,setting,value
O=C(O)C1C2C=CC(O2)C1C(=O)NCc1cccnc1 (stereo not drawn),GI50,786-0,> 100 µM (inactive)
same,GI50,A498,> 100 µM (inactive)
same,GI50,A549,> 100 µM (inactive)
same,GI50,ACHN,> 100 µM (inactive)
same,GI50,BT-549,> 100 µM (inactive)
same,GI50,CAKI-1,> 100 µM (inactive)
same,GI50,CCRF-CEM,> 100 µM (inactive)
same,GI50,COLO 205,> 100 µM (inactive)
same,GI50,DU-145,> 100 µM (inactive)
same,GI50,EKVX,> 100 µM (inactive)
same,GI50,HCT-116,> 100 µM (inactive)
same,GI50,HCT-15,> 100 µM
same,GI50,HL-60,> 100 µM (inactive)
same,GI50,HOP-62,> 100 µM (inactive)
same,GI50,HOP-92,> 100 µM (inactive)
same,GI50,HT-29,> 100 µM (inactive)
same,GI50,Hs-578T,51.8 µM (inactive)
same,GI50,IGROV-1,> 100 µM (inactive)
same,GI50,K562,> 100 µM (inactive)
same,GI50,KM12,> 100 µM (inactive)
same,GI50,LOX IMVI,> 100 µM (inactive)
same,GI50,M14,> 100 µM (inactive)
same,GI50,MCF7,> 100 µM (inactive)
same,GI50,MDA-MB-231,> 100 µM (inactive)
same,GI50,MDA-MB-435,> 100 µM (inactive)
same,GI50,MDA-N,> 100 µM (inactive)
same,GI50,MOLT-4,> 100 µM (inactive)
same,GI50,Malme-3M,> 100 µM (inactive)
same,GI50,NCI-H226,> 100 µM (inactive)
same,GI50,NCI-H23,> 100 µM (inactive)
same,GI50,NCI-H460,> 100 µM (inactive)
same,GI50,NCI-H522,> 100 µM (inactive)
same,GI50,NCI/ADR-RES,> 100 µM (inactive)
same,GI50,OVCAR-3,> 100 µM (inactive)
same,GI50,OVCAR-4,> 100 µM (inactive)
same,GI50,OVCAR-5,> 100 µM (inactive)
same,GI50,OVCAR-8,> 100 µM (inactive)
same,GI50,PC-3,> 100 µM (inactive)
same,GI50,RPMI-8226,> 100 µM (inactive)
same,GI50,RXF 393,> 100 µM (inactive)
same,GI50,SF-268,> 100 µM (inactive)
same,GI50,SF-295,> 100 µM (inactive)
same,GI50,SF-539,> 100 µM (inactive)
same,GI50,SK-MEL-28,> 100 µM (inactive)
same,GI50,SK-MEL-2,> 100 µM (inactive)
same,GI50,SK-MEL-5,> 100 µM (inactive)
same,GI50,SK-OV-3,> 100 µM (inactive)
same,GI50,SN12C,> 100 µM (inactive)
same,GI50,SNB-19,> 100 µM (inactive)
same,GI50,SNB-75,> 100 µM (inactive)
same,GI50,SR,> 100 µM (inactive)
same,GI50,SW-620,> 100 µM (inactive)
same,GI50,T47D,> 100 µM (inactive)
same,GI50,TK-10,> 100 µM (inactive)
same,GI50,U-251,> 100 µM (inactive)
same,GI50,UACC-257,72.6 µM (inactive)
same,GI50,UACC-62,> 100 µM (inactive)
same,GI50,UO-31,> 100 µM (inactive)
